Literature values in patent US6537592B2, “Extracts of kava-kava” (Kava Pharmaceuticals, Inc., priority 2000, dated 2003).

Settings: at 21° C., water

Structure (SMILES): COC1=CC(=O)O[C@@H](/C=C/c2ccccc2)C1 [kawain]
- maximum solubility: about 2.2 mg/100 ml water
